{
  "source": "patent US8802815B2",
  "about": "“Peptides and uses thereof to modulate IGF-1 synthesis and IGF-1 receptor expression” (Universite Pierre et Marie Curie (Paris 6), priority 2009, dated 2014)",
  "format_in_all_cases": "cell-based, mouse",
  "key": {"[1]": {"tested_on": "IGF-1R", "test": "IGF-1R expression in chondrocytes in culture, optical density (FIG. 2)", "excerpt": "(§1) Inventors investigated P70 effect on IGF-1 synthesis and on expression of its receptor (IGF-1R) by means of chondrocytes in culture."}, "[2]": {"tested_on": "chondrocytes", "test": "[3H] thymidine incorporation in DNA (cell proliferation), primary chondrocytes culture", "protocol": "To assess peptide ability to induce cell proliferation, inventors carried out a test showing [H^3] thymidine incorporation during DNA duplication according to Kurz et al., 1997 method. This test was adapted to the model used by the inventors, namely a primary mouse embryonic chondrocytes culture.\nChondrocytes, obtained by dissociation of mouse mandible condyles (MCDC) were incubated in a culture medium permitting chondrogenesis, in particular, 5×10^5 cells/ml were incubated with 1 μCi [^3H]-thymidine/ml of medium (Amersham, code TRA120, stock 1 mCi/ml, specific activity 5 Ci/mmol) for 3 hours at 37° C. in DMEM medium (Dulbecco's modified Eagle's medium) fetal calf serum (FCS) free but supplemented with 100 μg/ml of ascorbic acid, 1 mmol/L of calcium chloride, 10 mmol/L of 3-glycerophosphate, and antibiotics. Same medium, in which 5 μl of [^3H]-thymidine are added for 2 minutes, is used as negative control. Supernatant was removed and cells were washed twice with saline solution buffered at pH 7.0 (PBS), the cells are washed twice (for 5 minutes) with methanol. Then the cells are washed three times with a 10% trichloroacetic acid (TCA) cold solution. After washing cells twice with DDW, cells are incorporated in 200 μl of 0.3M NaOH for 15 minutes. The cells are then transferred in 3 ml of a neutralized scintillation fluid with 200 μl of 0.3M HCl. […]"}, "[3]": {"tested_on": "type II collagen", "test": "Type II collagen production by immunochemistry, chondrocytes culture (FIG. 5)", "details": "10^-7M peptide; 5th day of culture", "protocol": "The mouse embryos chondrocytes obtained according to same protocol as described above were cultured and incubated at a 10^−7M peptide P70 concentration. […] In fact, an increase of 150% is observed relative to the untreated control."}, "[4]": {"tested_on": "IGF-1", "test": "IGF-1 synthesis by immunohistochemistry, primary chondrocytes culture (FIG. 4)", "details": "IHC", "excerpt": "Moreover (FIG. 4), P70 inhibits IGF-1 synthesis at 10^−6M (30% inhibition at a high concentration of peptide) and stimulates IGF-1 synthesis at 10^−7M (90% increase at a low concentration of peptide)."}, "[5]": {"tested_on": "IGF-1 receptor", "test": "IGF-1R expression by immunohistochemistry, 5-day primary chondrocytes culture (FIG. 3)", "details": "IHC, 5-day culture"}, "[6]": {"tested_on": "IGF-1", "test": "IGF-1 production in chondrocytes in culture (FIG. 2)", "excerpt": "as §1"}, "[7]": {"tested_on": "chondrocytes", "test": "Chondrogenesis: cartilage nodule formation in chondrocytes culture (FIG. 6)", "details": "10^-7M peptide; 7th day of incubation; vs untreated chondrocytes", "protocol": "In FIG. 6, the peptide P70 effect at a concentration of 10^−7M is compared with untreated chondrocytes (control). At 7th day of incubation, in the presence of the peptide, accelerated formation of nodules of cartilage is clearly observed. The cartilage nodules development (volume/culture) is 85% accelerated."}},
  "data": [
    {"substance": "Acetyl-SNFGSRKFSYKAKFWTDVTTSELG-amide (Ac-SNFGSRKFSYKAKFWTDVTTSELG-NH2) [P70, 24-mer peptide of the invention, N-terminal acetyl, C-terminal amide]", "values": [
      {"measurement": "effect on the production of IGF-1 receptor", "setting": "[1]; 10^-6M peptide", "result": "virtually inhibits"},
      {"measurement": "effect on expression of IGF-1 receptor (IGF-1R)", "setting": "[1]; 10^-7 M peptide", "result": "important stimulation effect"},
      {"measurement": "stimulatory effect on the proliferation of chondrocytes, greater than the untreated control", "setting": "[2]; 10^-6M peptide, 3 hours", "result": 53, "unit": "%"},
      {"measurement": "stimulation effect on the proliferation of chondrocytes", "setting": "[2]; 10^-7M peptide", "result": "not observed"},
      {"measurement": "increase of type II collagen production relative to the untreated control", "setting": "[3]", "result": 150, "unit": "%"},
      {"measurement": "inhibition of IGF-1 synthesis", "setting": "[4]; 10^-6M peptide", "result": 30, "unit": "%"},
      {"measurement": "increase of IGF-1 synthesis", "setting": "[4]; 10^-7M peptide", "result": 90, "unit": "%"},
      {"measurement": "inhibition of IGF-1 receptor expression", "setting": "[5]; 10^-6 M peptide", "result": 36.8, "unit": "%"},
      {"measurement": "increase of IGF-1 receptor expression", "setting": "[5]; 10^-7 M peptide", "result": 23.8, "unit": "%"},
      {"measurement": "effect on the production of IGF-1", "setting": "[6]; 10^-6M peptide", "result": "virtually inhibits"},
      {"measurement": "effect on IGF-1 production", "setting": "[6]; 10^-7 M peptide", "result": "important stimulation effect"},
      {"measurement": "acceleration of cartilage nodules development (volume/culture)", "setting": "[7]", "result": 85, "unit": "%"}
    ]}
  ]
}
